From ChEMBL document CHEMBL1201862, “PubChem BioAssay data set” (2004)
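Tested at 5 concentrations; 48 h exposure; 96-well plates; endpoints linearly interpolated, else capped at highest concentration. GI50 marks 50% less growth.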 The source made the active and inactive calls. Rule as the data show it: active = GI50 up to about 1.1 µM and inactive = higher.

Legend:
Test in all cases: DTP human tumour cell line panel, 48 h
NCI-H460 = tested on: NCI-H460
OVCAR-4 = tested on: OVCAR-4
NCI-H226 = tested on: NCI-H226
CAKI-1 = tested on: CAKI-1
SK-MEL-5 = tested on: SK-MEL-5
SNB-75 = tested on: SNB-75
SF-539 = tested on: SF-539
ACHN = tested on: ACHN
PC-3 = tested on: PC-3
MDA-MB-435 = tested on: MDA-MB-435
SK-MEL-28 = tested on: SK-MEL-28
KM12 = tested on: KM12
OVCAR-3 = tested on: OVCAR-3
MOLT-4 = tested on: MOLT-4
UO-31 = tested on: UO-31
HL-60 = tested on: HL-60
SNB-19 = tested on: SNB-19
RXF 393 = tested on: RXF 393
COLO 205 = tested on: COLO 205
UACC-257 = tested on: UACC-257

Structure (SMILES) | GI50 (NCI-H460) | GI50 (OVCAR-4) | GI50 (NCI-H226) | GI50 (CAKI-1) | GI50 (SK-MEL-5) | GI50 (SNB-75) | GI50 (SF-539) | GI50 (ACHN) | GI50 (PC-3) | GI50 (MDA-MB-435) | GI50 (SK-MEL-28) | GI50 (KM12) | GI50 (OVCAR-3) | GI50 (MOLT-4) | GI50 (UO-31) | GI50 (HL-60) | GI50 (SNB-19) | GI50 (RXF 393) | GI50 (COLO 205) | GI50 (UACC-257)
Nc1nc(=O)c2c([nH]1)NCC(CCNc1ccc(C(=O)O)cc1)N2 (stereo not given) | > 100 µM (inactive) | > 100 µM (inactive) | > 100 µM (inactive) | > 100 µM (inactive) | > 100 µM (inactive) | > 100 µM (inactive) | > 100 µM (inactive) | > 100 µM (inactive) | > 100 µM (inactive) | > 100 µM (inactive) | > 100 µM (inactive) | > 100 µM (inactive) | > 100 µM (inactive) | > 100 µM (inactive) | > 100 µM (inactive) | 78 µM (inactive) | > 100 µM (inactive) | > 100 µM (inactive) | > 100 µM (inactive) | > 100 µM (inactive)
CC(N/N=C(\S)N1CCCC1)c1cccnn1 (stereo not given) | 0.306 µM (active) | 0.695 µM (active) | 1.13 µM (inactive) | 0.713 µM (active) | 0.279 µM (active) | 7.52 µM (inactive) | 0.215 µM (active) | 0.391 µM (active) | 0.375 µM (active) | 1.13 µM (inactive) | 0.453 µM (active) | 0.719 µM (active) | 0.29 µM (active) | 0.351 µM (active) | 0.741 µM (active) | 0.361 µM (active) | 0.513 µM (active) | 0.315 µM (active) | 0.376 µM (active) | 0.267 µM (active)
O=C1OC(C(O)C(O)C(O)CO)C(O)C1O (stereo not given) | > 100 µM (inactive) | > 100 µM (inactive) | > 100 µM (inactive) | > 100 µM (inactive) | > 100 µM (inactive) | > 100 µM (inactive) | > 100 µM (inactive) | > 100 µM (inactive) | > 100 µM (inactive) | > 100 µM (inactive) | > 100 µM (inactive) | > 100 µM (inactive) | > 100 µM (inactive) | > 100 µM (inactive) | > 100 µM (inactive) | > 100 µM (inactive) | > 100 µM (inactive) | > 100 µM (inactive) | > 100 µM (inactive) | > 100 µM (inactive)
CC/C(Cl)=N\OC(=O)Nc1ccc(F)c([N+](=O)[O-])c1 | 3.73 µM (inactive) | 4.99 µM (inactive) | 33.3 µM (inactive) | 2.85 µM (inactive) | 12.4 µM (inactive) | 18.2 µM (inactive) | 5.32 µM (inactive) | 1.92 µM (inactive) | 17.3 µM (inactive) | 16.3 µM (inactive) | 16.6 µM (inactive) | 17.5 µM (inactive) | 5.08 µM (inactive) | 2.72 µM (inactive) | 6.03 µM (inactive) | 2.39 µM (inactive) | 17.5 µM (inactive) | 16.7 µM (inactive) | 2.78 µM (inactive) | 17.6 µM (inactive)
O=C1C(C(c2ccc([N+](=O)[O-])cc2)N2CCOCC2)=C(O)C(c2ccccc2)N1c1ccccc1 (stereo not given) | > 10 µM (inactive) | > 10 µM (inactive) | > 10 µM (inactive) | > 10 µM (inactive) | > 10 µM (inactive) | 6.14 µM (inactive) | > 10 µM (inactive) | > 10 µM (inactive) | > 10 µM (inactive) | > 10 µM (inactive) | > 10 µM (inactive) | > 10 µM (inactive) | > 10 µM (inactive) | > 10 µM (inactive) | > 10 µM (inactive) | > 10 µM (inactive) | > 10 µM (inactive) | > 10 µM (inactive) | > 10 µM (inactive) | > 10 µM (inactive)
C=CCC1(O)C(=O)OC2C(O)COC21O (stereo not given) | > 100 µM (inactive) | > 100 µM (inactive) | > 100 µM (inactive) | > 100 µM (inactive) | > 100 µM (inactive) | 35.4 µM (inactive) | > 100 µM (inactive) | > 100 µM (inactive) | > 100 µM (inactive) | > 100 µM (inactive) | 23 µM (inactive) | > 100 µM (inactive) | > 100 µM (inactive) | > 100 µM (inactive) | > 100 µM (inactive) | > 100 µM (inactive) | > 100 µM (inactive) | > 100 µM (inactive) | > 100 µM (inactive) | > 100 µM (inactive)
Cc1cccc2c1C/C(=C\c1cccc(C)c1C(=O)O)C2=O | > 100 µM (inactive) | > 100 µM (inactive) | > 100 µM (inactive) | > 100 µM (inactive) | 71.6 µM (inactive) | > 100 µM (inactive) | > 100 µM (inactive) | > 100 µM (inactive) | > 100 µM (inactive) | > 100 µM (inactive) | > 100 µM (inactive) | > 100 µM (inactive) | > 100 µM (inactive) | 61.1 µM (inactive) | > 100 µM (inactive) | > 100 µM (inactive) | > 100 µM (inactive) | > 100 µM (inactive) | 82.6 µM (inactive) | > 100 µM (inactive)
